This passage reports IC50 results from US20050009840A1 (SUGEN, INC., priority 2003, published 2005).

Each structure is given as a SMILES string. pIC50: −log10 of the molar value.

As usually defined, the pIC50 is the negative decadic logarithm of the IC50, by convention in mol/L.

In this experiment the target is T1, Met kinase domain (GST fusion protein) (Homo sapiens, UniProt P08581).
T1 construct: Purified GST fusion protein containing the Met kinase domain
T1 sequence (P08581 1078-1345 limits assumed): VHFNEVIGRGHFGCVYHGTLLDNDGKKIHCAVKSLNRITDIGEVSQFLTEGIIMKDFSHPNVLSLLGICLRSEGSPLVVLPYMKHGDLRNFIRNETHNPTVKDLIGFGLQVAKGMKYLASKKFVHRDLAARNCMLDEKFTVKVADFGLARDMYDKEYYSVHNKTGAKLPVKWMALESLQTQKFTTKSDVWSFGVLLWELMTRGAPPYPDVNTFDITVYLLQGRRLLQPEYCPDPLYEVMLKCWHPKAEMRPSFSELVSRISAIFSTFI
The experiment can be described thus: Met transphosphorylation assay (ELISA, poly(glu-tyr) substrate).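 Also: Cell-free ELISA with plate-bound poly(Glu:Tyr 4:1) phosphorylated by GST-fused Met kinase domain plus ATP and Mn2+, phosphotyrosine detected by anti-phosphotyrosine antibody with HRP and ABTS read-out.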 It is filed as biochemical. The following applies: read-out: Met IC50.
As for `CC(Oc1nc(-c2ccc[nH]2)cnc1N)c1c(Cl)ccc(F)c1Cl` (centres unmarked) [II-201, 3-[1-(2,6-Dichloro-3-fluoro-phenyl)-ethoxy]-5-(1H-pyrrol-2-yl)-pyrazin-2-ylamine], the pIC50 was 6.66.
For `CC(Oc1nc(-c2ccc(C(=O)N3CCN(C)CC3)cn2)cnc1N)c1c(Cl)ccc(F)c1Cl` (centres unmarked) [II-202, (6-{5-Amino-6-[1-(2,6-dichloro-3-fluoro-phenyl)-ethoxy]-pyrazin-2-yl}-pyridin-3-yl)-(4-methyl-piperazin-1-yl)-methanone] the value was 6.82; for `CC(Oc1nc(-c2cc(C(=O)N3CCN(C)CC3)ccn2)cnc1N)c1c(Cl)ccc(F)c1Cl` (centres unmarked) [II-203, (2-{5-Amino-6-[1-(2,6-dichloro-3-fluoro-phenyl)-ethoxy]-pyrazin-2-yl}-pyridin-4-yl)-(4-methyl-piperazin-1-yl)-methanone], 6.74; for `CC(Oc1nc(-c2cccc(C(=O)N3CCN(C)CC3)n2)cnc1N)c1c(Cl)ccc(F)c1Cl` (centres unmarked) [II-204, (6-{5-Amino-6-[1-(2,6-dichloro-3-fluoro-phenyl)-ethoxy]-pyrazin-2-yl}-pyridin-2-yl)-(4-methyl-piperazin-1-yl)-methanone], 6.66.
Then `CC(Oc1nc(-c2cncc(C(=O)N3CCN(C)CC3)c2)cnc1N)c1c(Cl)ccc(F)c1Cl` (centres unmarked) [II-205, (5-{5-Amino-6-[1-(2,6-dichloro-3-fluoro-phenyl)-ethoxy]-pyrazin-2-yl}-pyridin-3-yl)-(4-methyl-piperazin-1-yl)-methanone], with 7.00; and `CC(Oc1nc(-c2ccnc(C(=O)N3CCN(C)CC3)c2)cnc1N)c1c(Cl)ccc(F)c1Cl` (centres unmarked) [II-206, (4-{5-Amino-6-[1-(2,6-dichloro-3-fluoro-phenyl)-ethoxy]-pyrazin-2-yl}-pyridin-2-yl)-(4-methyl-piperazin-1-yl)-methanone], with 7.00; and `CC(Oc1nc(-c2cncc(C(=O)NCCN3CCOCC3)c2)cnc1N)c1c(Cl)ccc(F)c1Cl` (centres unmarked) [II-208, 5-{5-Amino-6-[1-(2,6-dichloro-3-fluoro-phenyl)-ethoxy]-pyrazin-2-yl}-N-(2-morpholin-4-yl-ethyl)-nicotinamide], with 7.42.
For `CC(Oc1nc(-c2cncc(C(=O)NCCCN3CCOCC3)c2)cnc1N)c1c(Cl)ccc(F)c1Cl` (centres unmarked) [II-210, 5-{5-Amino-6-[1-(2,6-dichloro-3-fluoro-phenyl)-ethoxy]-pyrazin-2-yl}-N-(3-morpholin-4-yl-propyl)-nicotinamide] the value was 7.66.
